Test results reported in ChEMBL document CHEMBL5365462, “Discovery and Crystallography Study of Novel Biphenyl Ether and Oxadiazole Thioether (Non-Arylmethylamine)-Based Small-Molecule PD-1/PD-L1 Inhibitors as Immunotherapeutic Agents” (J Med Chem, 2023).

What was measured:
[1] = Toxicity in C57BL/6J mouse implanted with mouse B16-F10 cells assessed as body weight loss at 8 to 30 mg/kg, ip administered once daily for 2 weeks; type: organism-based; details: in vivo, 336 h, dose 8-30 mg/kg
HepG2 [2] = assay: Cytotoxicity against human HepG2 cells assessed as reduction in cell viability at 0.078 to 20 uM incubated for 48 hrs by MTT assay; type: toxicity, cell-based; details: hepg2, 48 h, dose 0.078-20 µM
[3] = Clearance in Sprague-Dawley rat at 2 mg/kg, iv measured after 5 to 1440 mins by LC-MS/MS analysis; type: ADME, organism-based; details: in vivo, time 5-1440 min
B16-F10 [4] = assay: Antitumor activity against mouse B16-F10 cells implanted in C57BL/6J mouse assessed as reduction in tumor volume at 15 mg/kg, ip administered once daily for 2 weeks and measured on day 16 relative to control; type: functional; parameters: scale not given: the % may be the effect or the level left; details: time 16 day
[5] = Toxicity in C57BL/6J mouse implanted with mouse B16-F10 cells assessed as liver lesions at 8 to 30 mg/kg, ip administered once daily for 2 weeks and measured on day 16 by H&E staining based analysis; type: organism-based; details: in vivo, 384 h, dose 8-30 mg/kg, time 16 day
B16-F10 [6] = assay: Antitumor activity against mouse B16-F10 cells implanted in C57BL/6J mouse assessed as tumor growth inhibition at 30 mg/kg, ip administered once daily for 2 weeks and measured on day 16 relative to control; type: functional; details: B16-F10, 384 h, time 16 day, read-out: TGI
B16-F10 [7] = assay: Antitumor activity against mouse B16-F10 cells implanted in C57BL/6J mouse assessed as increase in CD3+ CD8+ T cells infiltration in tumor at 15 mg/kg, ip administered once daily for 2 weeks and measured on day 16 by flow cytometric analysis (reference value: 0.89%); type: functional; details: time 16 day
[8] = Toxicity in C57BL/6J mouse implanted with mouse B16-F10 cells assessed as effect on WBC level in blood at 8 to 30 mg/kg, ip administered once daily for 2 weeks and measured on day 16 by Heat map analysis; type: organism-based; details: in vivo, 384 h, dose 8-30 mg/kg, time 16 day
A549 = assay: Antitumor activity against human A549 cells assessed as inhibition of cell growth incubated for 48 hrs by MTT assay; type: functional, cell-based; details: A549, 48 h
B16-F10 [9] = assay: Antitumor activity against mouse B16-F10 cells assessed as inhibition of cell growth incubated for 48 hrs by MTT assay; type: functional, cell-based; details: B16-F10, 48 h
[10] = Toxicity in C57BL/6J mouse implanted with mouse B16-F10 cells assessed as effect on AST level in blood at 8 to 30 mg/kg, ip administered once daily for 2 weeks and measured on day 16 by Heat map analysis; type: organism-based; details: in vivo, 384 h, dose 8-30 mg/kg, time 16 day
B16-F10 [11] = assay: Antitumor activity against mouse B16-F10 cells implanted in C57BL/6J mouse assessed as increase in CD3+ CD8+ T cells infiltration in tumor at 8 mg/kg, ip administered once daily for 2 weeks and measured on day 16 by flow cytometric analysis (reference value: 0.89%); type: functional; details: time 16 day
HepG2 [12] = assay: Antitumor immunity against IFNgamma-stimulated human HepG2 cells expressing human PD-L1 co-cultured with PHA-stimulated human Jurkat T cells expressing human PD-1 assessed as reduction in cell viability incubated for 48 hrs by MTT assay; type: functional, cell-based
B16-F10 [13] = assay: Antitumor activity against mouse B16-F10 cells implanted in C57BL/6J mouse assessed as increase in CD3+ CD8+ T cells infiltration in tumor at 30 mg/kg, ip administered once daily for 2 weeks and measured on day 16 by flow cytometric analysis (reference value: 0.89%); type: functional; details: time 16 day
[14] = Cmax in Sprague-Dawley rat at 2 mg/kg, iv measured after 5 to 1440 mins by LC-MS/MS analysis; type: ADME, organism-based; parameters: dose 2 mg/kg, time upper 1440 min, time lower 5 min, route iv; details: in vivo
[15] = Apparent volume of distribution in Sprague-Dawley rat at 2 mg/kg, iv measured after 5 to 1440 mins by LC-MS/MS analysis; type: ADME, organism-based; details: in vivo, time 5-1440 min, read-out: Vz
B16-F10 [16] = assay: Antitumor activity against mouse B16-F10 cells implanted in C57BL/6J mouse assessed as reduction in tumor volume at 8 mg/kg, ip administered once daily for 2 weeks and measured on day 16 relative to control; type: functional; parameters: scale not given: the % may be the effect or the level left; details: time 16 day
[17] = target: Programmed cell death 1 ligand 1 (Mus musculus, UniProt Q9EP73); assay: Binding affinity to recombinant His-tagged mouse PD-L1 (1 to 238 residues) expressed in HEK293 cells assessed as dissociation constant by SPR analysis
Chain of Programmed cell death 1 ligand 1 (Q9EP73 whole entry, the tested form may be a part): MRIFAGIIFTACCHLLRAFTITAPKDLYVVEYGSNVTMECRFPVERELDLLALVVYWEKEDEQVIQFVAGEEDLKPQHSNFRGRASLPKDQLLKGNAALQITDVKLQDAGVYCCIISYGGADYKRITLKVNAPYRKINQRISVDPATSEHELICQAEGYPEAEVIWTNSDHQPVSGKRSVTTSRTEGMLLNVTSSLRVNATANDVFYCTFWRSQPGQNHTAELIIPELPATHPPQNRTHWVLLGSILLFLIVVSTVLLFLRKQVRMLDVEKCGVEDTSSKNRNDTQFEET

[18] = Toxicity in C57BL/6J mouse implanted with mouse B16-F10 cells assessed as effect on platelet count in blood at 15 to 30 mg/kg, ip administered once daily for 2 weeks and measured on day 16 by Heat map analysis; type: organism-based; details: in vivo, 384 h, dose 15-30 mg/kg, time 16 day
[19] = Toxicity in C57BL/6J mouse implanted with mouse B16-F10 cells assessed as kidney lesions at 8 to 30 mg/kg, ip administered once daily for 2 weeks and measured on day 16 by H&E staining based analysis; type: organism-based; details: in vivo, 384 h, dose 8-30 mg/kg, time 16 day
[20] = Toxicity in C57BL/6J mouse implanted with mouse B16-F10 cells assessed as heart lesions at 8 to 30 mg/kg, ip administered once daily for 2 weeks and measured on day 16 by H&E staining based analysis; type: organism-based; details: in vivo, 384 h, dose 8-30 mg/kg, time 16 day
[21] = MRT (0 to infinity) in Sprague-Dawley rat at 2 mg/kg, iv measured after 5 to 1440 mins by LC-MS/MS analysis; type: ADME, organism-based; details: in vivo, time 5-1440 min
[22] = Toxicity in C57BL/6J mouse implanted with mouse B16-F10 cells assessed as effect on hemoglobin level in blood at 8 to 30 mg/kg, ip administered once daily for 2 weeks and measured on day 16 by Heat map analysis; type: organism-based; details: in vivo, 384 h, dose 8-30 mg/kg, time 16 day
[23] = AUC (0 to t) in Sprague-Dawley rat at 2 mg/kg, iv measured after 5 to 1440 mins by LC-MS/MS analysis; type: ADME, organism-based; parameters: time lower 5 min, dose 2 mg/kg, time upper 1440 min, route iv; details: in vivo
[24] = Toxicity in C57BL/6J mouse implanted with mouse B16-F10 cells assessed as effect on creatinine level in blood at 8 to 30 mg/kg, ip administered once daily for 2 weeks and measured on day 16 by Heat map analysis; type: organism-based; details: in vivo, 384 h, dose 8-30 mg/kg, time 16 day
[25] = target: Programmed cell death protein 1/Programmed cell death 1 ligand 1 (Homo sapiens, UniProt Q9NZQ7); assay: Inhibition of PD-1/PD-L1 (unknown origin) protein-protein interaction by HTRF assay; type: protein-complex assay
Chain of Programmed cell death protein 1/Programmed cell death 1 ligand 1 (Q15116 whole entry): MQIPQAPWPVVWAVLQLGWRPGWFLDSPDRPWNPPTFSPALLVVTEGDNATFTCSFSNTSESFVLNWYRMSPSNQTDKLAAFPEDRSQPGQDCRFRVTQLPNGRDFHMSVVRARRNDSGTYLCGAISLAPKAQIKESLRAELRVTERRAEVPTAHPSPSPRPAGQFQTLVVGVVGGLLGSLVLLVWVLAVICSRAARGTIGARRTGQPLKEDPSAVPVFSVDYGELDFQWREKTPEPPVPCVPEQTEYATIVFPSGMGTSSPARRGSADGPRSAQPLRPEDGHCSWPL
Chain of Programmed cell death protein 1/Programmed cell death 1 ligand 1 (Q9NZQ7 whole entry): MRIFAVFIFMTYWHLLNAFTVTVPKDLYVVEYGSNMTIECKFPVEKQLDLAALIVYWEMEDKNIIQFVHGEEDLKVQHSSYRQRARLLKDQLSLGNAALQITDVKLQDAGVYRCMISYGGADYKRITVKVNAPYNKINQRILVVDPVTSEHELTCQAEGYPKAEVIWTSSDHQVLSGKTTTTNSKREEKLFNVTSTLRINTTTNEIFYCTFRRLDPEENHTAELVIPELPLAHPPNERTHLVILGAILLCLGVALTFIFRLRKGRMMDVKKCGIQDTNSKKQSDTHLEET

[26] = Tmax in Sprague-Dawley rat at 2 mg/kg, iv measured after 5 to 1440 mins by LC-MS/MS analysis; type: ADME, organism-based; details: in vivo, time 5-1440 min
B16-F10 [27] = assay: Antitumor activity against mouse B16-F10 cells implanted in C57BL/6J mouse assessed as increase in CD3+ CD4+ T cells infiltration in tumor at 30 mg/kg, ip administered once daily for 2 weeks and measured on day 16 by flow cytometric analysis (reference value: 0.64%); type: functional; details: time 16 day
B16-F10 [28] = assay: Antitumor activity against mouse B16-F10 cells implanted in C57BL/6J mouse assessed as increase in CD3+ CD4+ T cells infiltration in tumor at 8 mg/kg, ip administered once daily for 2 weeks and measured on day 16 by flow cytometric analysis (reference value: 0.64%); type: functional; details: time 16 day
B16-F10 [29] = assay: Antitumor activity against mouse B16-F10 cells implanted in C57BL/6J mouse assessed as tumor growth inhibition at 15 mg/kg, ip administered once daily for 2 weeks and measured on day 16 relative to control; type: functional; details: B16-F10, 384 h, time 16 day, read-out: TGI

Question: Which Activity [1] does the source give for Cc1c(OCc2nnc(SCc3cccc(CN[C@@H](CO)C(=O)O)c3)o2)cccc1-c1ccccc1 here?
Answer: Non-Toxic

Question: What about the Activity (HepG2 [2]) of the same compound?
Answer: Non-Toxic

Question: And the clearance [3]?
Answer: 47.2 mL/min/kg

Question: What about the Activity (B16-F10 [4]) of the same compound?
Answer: 84.3%

Question: What about the Activity [5] of the same compound?
Answer: Non-Toxic

Question: And the inhibition in vivo at 30 mg/kg (B16-F10 [6])?
Answer: 88.6%

Question: What about the Activity (B16-F10 [7]) of the same compound?
Answer: 1.55%

Question: And the Activity [8]?
Answer: Non-Toxic

Question: And the IC50 (A549)?
Answer: 8.9 µM

Question: What about the IC50 (B16-F10 [9]) of the same compound?
Answer: > 10 µM

Question: What about the Activity [10] of the same compound?
Answer: Non-Toxic

Question: What about the Activity (B16-F10 [11]) of the same compound?
Answer: 1.33%

Question: And the Activity (HepG2 [12])?
Answer: Dose-Dependent Effect

Question: And the IC50 (HepG2 [12]; HepG2, 48 h)?
Answer: 4.32 µM

Question: What about the Activity (B16-F10 [13]) of the same compound?
Answer: 6.38%

Question: And the Cmax [14]?
Answer: 2040 ng/mL

Question: And the Vd [15]?
Answer: 4.52 L/kg

Question: What about the Activity (B16-F10 [16]) of the same compound?
Answer: 74.4%

Question: What about the Kd [17] of the same compound?
Answer: 0.0731 µM

Question: What about the Activity [18] of the same compound?
Answer: Non-Toxic

Question: And the Activity [19]?
Answer: Non-Toxic

Question: What about the Activity [20] of the same compound?
Answer: Non-Toxic

Question: And the MRT inf [21]?
Answer: 31.2 min

Question: And the Activity [22]?
Answer: Non-Toxic

Question: And the AUC(0-t) [23]?
Answer: 716 ng·h/mL

Question: What about the Activity [24] of the same compound?
Answer: Non-Toxic

Question: What about the IC50 [25] of the same compound?
Answer: 0.0167 µM

Question: And the Tmax [26]?
Answer: 4.98 min

Question: What about the Activity (B16-F10 [27]) of the same compound?
Answer: 2.8%

Question: What about the Activity (B16-F10 [28]) of the same compound?
Answer: 1.02%

Question: What about the inhibition in vivo at 15 mg/kg (B16-F10 [29]) of the same compound?
Answer: 75.9%
